From patent US20130253011A1, “INSECTICIDAL COMPOUNDS” (SYNGENTA PARTICIPATIONS AG, priority 2010, published 2013)

melting point: 80 to 82 °C
Compound: COc1c(-c2cn(-c3c(C(F)(F)F)c(C(F)(F)C(F)(F)F)nn3C)nn2)cccc1N(C)C(=O)c1c(F)cc(F)cc1F
